These results are taken from US9296697B2, “Hetaryl-substituted guanidine compounds and use thereof as binding partners for 5-HT5-receptors” (Abbott Laboratories, priority 2005, dated 2016).

T1 sequence (P47898 whole entry): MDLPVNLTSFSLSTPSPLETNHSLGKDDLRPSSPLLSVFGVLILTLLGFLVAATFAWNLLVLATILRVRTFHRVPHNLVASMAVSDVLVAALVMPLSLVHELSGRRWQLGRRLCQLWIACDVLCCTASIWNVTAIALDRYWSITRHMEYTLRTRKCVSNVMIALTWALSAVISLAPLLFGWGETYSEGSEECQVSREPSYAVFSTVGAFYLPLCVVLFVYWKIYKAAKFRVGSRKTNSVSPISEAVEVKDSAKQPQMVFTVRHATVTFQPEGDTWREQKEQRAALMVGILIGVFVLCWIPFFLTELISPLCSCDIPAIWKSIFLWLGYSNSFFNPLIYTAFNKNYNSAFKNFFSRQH

The assay concerns the target T1, h5-HT5A receptor (Homo sapiens, UniProt P47898).
T1 construct: expressed in transfected cells; membranes used
Put plainly: h5-HT5A [3H]5-CT binding assay. The conditions noted are these: affinity for 5-HT5A; membranes of HEK293 cells expressing the h5-HT5A receptor gene, 2.5 nM [3H]5-CT. How it is done: h5-HT5A [^3H]5-CT Binding Assay
Membranes of HEK293 cells which permanently express the h5-HT5A receptor gene were incubated in 100 mM tris-HCl buffer (pH 7.7) containing 1 mM EDTA, in the presence of 2.5 nM [^3H]5-CT (total volume 600 μL). The total binding is defined as the binding that is observed when the membranes are incubated in the presence of only the radioligand. The inhibition induced by the compound is determined by incubation of cell membranes in the presence of the radioligand and various concentrations of the compound of interest. Nonspecific binding is defined as the [^3H]5-CT binding obtained by incubation of the membranes, the same as for the total binding, but in the presence of 10 μM methiothepine. Following incubation for 75 min at 30° C., the membrane suspension was filtered through a GF/B-Filter coated with 0.03% PEI, using a Skatron® harvesting system. The residual radioactivity in the filter was quantified by liquid scintillation counting.
Various concentrations of the test substances were used in both assays, and the Ki or IC50 values were determined.
The Ki is the dissociation constant of the complex between target and ligand, obtained from inhibition or displacement. `COc1ccccc1CNC(=N)Nc1cccc(-c2cccs2)n1` [Example 49, N-(2-Methoxybenzyl)-N′-[6-(2-thienyl)pyridin-2-yl]guanidine] returned a Ki of under 100 nM.
In the case of `COc1ccccc1CNC(=N)Nc1cccc(-c2ccc(F)cc2)n1` [Example 50, N-[6-(4-Fluorophenyl)pyridin-2-yl]-N′-(2-methoxybenzyl)guanidine], the inhibition constant Ki was under 300 nM.
For the molecule `COc1ccccc1CNC(=N)Nc1cccc(-c2ccccc2)n1` [Example 51, N-(2-Methoxybenzyl)-N′-(6-phenylpyridin-2-yl)guanidine acetate], the inhibitory constant (Ki) is under 100 nM.
Then `COc1ccccc1CNC(=N)Nc1cccc(C#N)n1` [Example 52, N-(6-Cyanopyridin-2-yl)-N′-(2-methoxybenzyl)guanidine acetate], with under 100 nM; and `COc1cccc(OC)c1CNC(=N)Nc1cccc(-c2ccccc2)n1` [Example 53, N-(2,6-Dimethoxybenzyl)-N′-(6-phenylpyridin-2-yl)guanidine acetate], with under 100 nM; and `COc1cccc(OC)c1CNC(=N)Nc1cccc(-c2ccc(F)cc2)n1` [Example 54, N-(2,6-Dimethoxybenzyl)-N′-[6-(4-fluorophenyl)pyridin-2-yl]guanidine], with under 100 nM.
The value for `COc1cccc(OC)c1CNC(=N)Nc1cccc(C#N)n1` [Example 55, N-(6-Cyanopyridin-2-yl)-N′-(2,6-dimethoxybenzyl)guanidine acetate] was under 100 nM.
The value for `COc1cccc(OC)c1CNC(=N)Nc1cc(-c2ccccc2)ccn1` [Example 56, N-(2,6-Dimethoxybenzyl)-N′-(4-phenylpyridin-2-yl)guanidine diacetate] was under 100 nM; that for `COc1cccc(OC)c1CNC(=N)Nc1cc(-c2ccc(F)cc2)ccn1` [Example 57, N-(2,6-Dimethoxybenzyl)-N′-[4-(4-fluorophenyl)pyridin-2-yl]guanidine acetate] was under 100 nM.
Molecule `COc1ccccc1CNC(=N)Nc1cc(-c2ccccc2)ccn1` [Example 58, N-(2-Methoxybenzyl)-N′-(4-phenylpyridin-2-yl)guanidine acetate] came in with a Ki of under 100 nM.
Then `COc1ccccc1CNC(=N)Nc1cc(-c2ccc(F)cc2)ccn1` [Example 59, N-[4-(4-Fluorophenyl)pyridin-2-yl]-N′-(2-methoxybenzyl)guanidine acetate], with under 300 nM; and `COc1cccc(OC)c1CNC(=N)Nc1ncccc1-c1ccccc1` [Example 60, N-(2,6-Dimethoxybenzyl)-N′-(3-phenylpyridin-2-yl)guanidine acetate], with under 300 nM; and `COc1cccc(OC)c1CNC(=N)Nc1ncccc1-c1ccc(F)cc1` [Example 61, N-(2,6-Dimethoxybenzyl)-N′-(3-(4-fluorophenyl)pyridin-2-yl)guanidine acetate], with under 300 nM.
For the molecule `COc1ccccc1CNC(=N)Nc1ncccc1-c1ccccc1` [Example 62, N-(2-Methoxybenzyl)-N′-(3-phenylpyridin-2-yl)guanidine acetate], the Ki was under 100 nM.
The value for `COc1ccccc1CNC(=N)Nc1ncccc1-c1ccc(F)cc1` [Example 63, N-[3-(4-Fluorophenyl)pyridin-2-yl]-N′-(2-methoxybenzyl)guanidine acetate] was under 10000 nM; that for `COc1cccc(OC)c1CNC(=N)Nc1cc(C#N)ccn1` [Example 64, N-(4-Cyanopyridin-2-yl)-N′-(2,6-dimethoxybenzyl)guanidine acetate] was under 100 nM; that for `COc1cccc(OC)c1CNC(=N)Nc1ncccc1C#N` [Example 65, N-(3-Cyanopyridin-2-yl)-N′-(2,6-dimethoxybenzyl)guanidine acetate] was under 10000 nM.
Then `COc1ccccc1CNC(=N)Nc1cc(C#N)ccn1` [Example 66, N-(4-Cyanopyridin-2-yl)-N′-(2-methoxybenzyl)guanidine acetate], with under 100 nM.
The value for `COc1ccccc1CNC(=N)Nc1ccc(Cc2ccccc2)cn1` [Example 67, N-(5-Benzylpyridin-2-yl)-N′-(2-methoxybenzyl)guanidine acetate] was under 100 nM.
